FITC-linker-YGRRARRRRRRIYSIKDTKLGN-biotin [CTP-SEB2]
penetration of peptide into MoDCs (MoDCs): penetrated MoDCs much more
permeability effect (degree of fluorescent labeling of cells) (BMDCs): permeability effect is greater
peptide permeability in DCs (peptide-FITC in CD11c+ CD80+ population) (dendritic cells): permeated a large amount of peptide
